# Experimental data from BindingDB's records for doi:10.7270/Q2H993J6 (Pcmd, 2008).
# *1 amine or outer side, *2 acyl side, *3 side chain or, on linkers, in order; H or OH if unused. Where a SMILES comes first, the peptide text is derived from it. CO = O=C([*:1])[*:2]
# Biological target: Coagulation factor XI (Homo sapiens, UniProt P03951)
# Experiment: FXIa inhibitor IC50 values, dose response, biochemical, hits from 1536-well screen (AID 846)
# Details: pH 7.4; 23 °C
# Coagulation factor XI, sequence (P03951 19-387 limits assumed): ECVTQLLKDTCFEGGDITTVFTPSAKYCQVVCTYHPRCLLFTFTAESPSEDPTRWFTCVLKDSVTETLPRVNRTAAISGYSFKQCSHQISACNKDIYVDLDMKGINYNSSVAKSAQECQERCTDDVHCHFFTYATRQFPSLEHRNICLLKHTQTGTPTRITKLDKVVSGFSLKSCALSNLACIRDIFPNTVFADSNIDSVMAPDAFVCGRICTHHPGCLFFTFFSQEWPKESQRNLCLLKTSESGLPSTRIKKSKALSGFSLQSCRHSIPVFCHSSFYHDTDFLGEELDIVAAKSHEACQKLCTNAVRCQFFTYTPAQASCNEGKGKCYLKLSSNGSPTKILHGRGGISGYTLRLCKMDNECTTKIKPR
# Coagulation factor XI, sequence (P03951 388-625 limits assumed): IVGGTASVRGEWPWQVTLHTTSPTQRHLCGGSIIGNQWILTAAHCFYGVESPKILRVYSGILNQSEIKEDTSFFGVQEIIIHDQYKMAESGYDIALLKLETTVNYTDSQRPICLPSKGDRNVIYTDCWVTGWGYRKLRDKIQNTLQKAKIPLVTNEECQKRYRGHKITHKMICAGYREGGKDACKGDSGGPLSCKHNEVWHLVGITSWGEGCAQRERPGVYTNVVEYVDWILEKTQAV
row,SMILES,IC50
1,O=C(Cc1cccs1)Nc1nnc(CCc2ccccc2)s1 [MLS000064221],> 50 µM
2,CCOc1ccc(-c2c(C)[n+](-c3ccc(OCC)cc3)c3n2CCCCC3)cc1,0.958 µM
3,CCn1nc(CC(=O)O)c2ccccc2c1=O [2-(3-ethyl-4-oxidanylidene-phthalazin-1-yl)ethanoic acid],> 50 µM
4,"CN(Cc1ccccc1)c1nc2c(c(=O)[nH]c(=O)n2C)n1CCCSc1ncccn1 [3-methyl-8-[methyl-(phenylmethyl)amino]-7-(3-pyrimidin-2-ylsulfanylpropyl)purine-2,6-dione]",> 50 µM
5,CC1=CC(=NNC(=S)Nc2cccnc2)CC(C)(C)C1 [SMR000385739],> 50 µM
6,CCNc1cc(N2CCNCC2)ccc1[N+](=O)[O-],> 50 µM
7,CC1=NN(C(C#N)c2ccc([N+](=O)[O-])cc2)C(C)(C)C1 (configuration not stated) [MLS001049177],> 50 µM
8,"COc1cccc(NC(C)(C)c2nnnn2-c2c(C)cccc2C)c1 [N-[2-[1-(2,6-dimethylphenyl)tetrazol-5-yl]propan-2-yl]-3-methoxyaniline]",> 50 µM
9,"O=C(NCc1ccco1)C1CC(c2ccccc2C(F)(F)F)=NO1 (configuration not stated) [N-(2-furanylmethyl)-3-[2-(trifluoromethyl)phenyl]-4,5-dihydroisoxazole-5-carboxamide]",> 50 µM
10,CN(Cc1ccon1)C(=O)CC1C(=O)NCCN1CC1CCCCC1 (configuration not stated) [2-[1-(cyclohexylmethyl)-3-oxopiperazin-2-yl]-N-(isoxazol-3-ylmethyl)-N-methylacetamide],> 50 µM
11,CCC1CCC2(CC1)SCC(=O)N2c1ccccc1 (configuration not stated) [SMR000425321],> 50 µM
12,CCCCCCCc1c(O)nc(SCCN(C)C)[nH]c1=O [SMR000414668],14 µM
13,CC(C)[C@H](NC(=O)[C@H](CCCNC(=N)N)NC(=O)N[C@@H](Cc1ccccc1)C(=O)O)C(=O)N[C@H](C=O)CCCNC(=N)N [2-[[[[(2S)-5-(diaminomethylideneamino)-1-[[(2S)-1-[[5-(diaminomethylideneamino)-1-oxopentan-2-yl]amino]-3-methyl-1-oxobutan-2-yl]amino]-1-oxopentan-2-yl]amino]-oxomethyl]amino]-3-phenylpropanoic acid] ({Phe-CO}-Arg-Val-Arg-aldehyde),3.81 µM
14,Clc1ccc(-c2csc(N3CCOCC3)n2)cc1 [4-[4-(4-chlorophenyl)-2-thiazolyl]morpholine],> 50 µM
15,O=C(Nc1cc([N+](=O)[O-])ccc1N1CCOCC1)c1ccco1 [N-(2-morpholin-4-yl-5-nitro-phenyl)furan-2-carboxamide],> 50 µM
16,Cc1ccc(NC(=S)NCCc2ccccc2)nc1 [N-(2-Phenethyl)-N -(2-(5-methylpyridyl))thiourea],5.5 µM
17,O=C1SCCC1NC(=O)C(c1ccccc1)c1ccccc1 (configuration not stated) [SMR000425361],> 50 µM
18,COc1ccc(N2C(=O)C(Cl)=C(N3CCCC(C)C3)C2=O)cc1 (configuration not stated) [SMR000142424],> 50 µM
19,CC1(C)[N-]c2ccc([N+](=O)[O-])c(N)c2[N+]1=O [MLS001012383],> 50 µM
20,Cc1cc(/C=C2\SC(=S)N(C)C2=O)c(C)n1-c1cccc(O)c1 [SMR000415846],> 50 µM
21,"Cc1cc(F)ccc1S(=O)(=O)Nc1ncnc2sc3c(c12)CCC3 [N-(7,8-dihydro-6H-cyclopenta[4,5]thieno[1,2-c]pyrimidin-1-yl)-4-fluoro-2-methylbenzenesulfonamide]",> 50 µM
22,CCCn1cc(C(=O)OCC)c(=O)c2cc(F)c(F)cc21 [SMR000427606],> 50 µM
23,Cc1nnc(SCCn2c(Br)nc3c2c(=O)[nH]c(=O)n3C)s1,> 50 µM
24,COc1ccc(OC)c(S(=O)(=O)N2CCCC(C)C2)c1 (configuration not stated) [MLS000035543],> 50 µM
25,"CC/C=C/C(=O)N1CC2(CC(c3cccc(NC(=O)CCCCC)c3)=NO2)C[C@H]1C(N)=O (stereo partly drawn) [(8S)-3-[3-(hexanoylamino)phenyl]-7-[(E)-pent-2-enoyl]-1-oxa-2,7-diazaspiro[4.4]non-2-ene-8-carboxamide]",9.23 µM
26,S=C(NCCc1ccccc1)Nc1ccc(Br)cn1 [3-(5-bromopyridin-2-yl)-1-(2-phenylethyl)thiourea],> 50 µM
27,CNC(=S)N1CCC(NC(=O)c2ccco2)CC1 [N-[1-(methylcarbamothioyl)piperidin-4-yl]furan-2-carboxamide],> 50 µM

# Further lines, results first:
row,IC50,SMILES
1,> 50 µM,NS(=O)(=O)c1ccc(CCNC(=O)Cc2ccccc2[N+](=O)[O-])cc1 [MLS000689902]
2,> 50 µM,"CCCN(CCC)S(=O)(=O)c1ccc(C(=O)NNc2nc(-c3ccccc3)c3cc(Br)ccc3n2)cc1 [4-[[(6-bromo-4-phenylquinazolin-2-yl)amino]carbamoyl]-N,N-dipropylbenzenesulfonamide]"
3,> 50 µM,COc1cc(C2SCC(=O)N2c2c(C)n(C)n(-c3ccccc3)c2=O)ccc1O (configuration not stated) [SMR000414946]
4,> 50 µM,COC(=O)c1[nH]c2cc(OC)ccc2c1NC(=O)CCN1CCCCC1 [MLS000041334]
5,6.52 µM,COc1ccc(NCC(=O)Nc2cc(S(=O)(=O)N3CCOCC3)ccc2N2CCOCC2)c(OC)c1 [SMR000371196]
6,> 50 µM,Cc1ccc(C(=O)NCC(=O)OC(C)C(=O)Nc2ccc(N3CCOCC3)cc2)s1 (configuration not stated) [[1-(4-morpholin-4-ylanilino)-1-oxopropan-2-yl] 2-[(5-methylthiophene-2-carbonyl)amino]acetate]
7,> 50 µM,"COc1ccc(CSc2nc(C)cc(C)c2S(C)(=O)=O)cc1 [2-[(4-methoxybenzyl)sulfanyl]-4,6-dimethyl-3-pyridinyl methyl sulfone]"
8,> 50 µM,O=C(Oc1ccc2c(=O)c(Cl)coc2c1)c1cccnc1 [MLS000523505]
9,> 50 µM,Oc1cc(Sc2ccc(Cl)cc2)c(O)n1-c1ccc2c(c1)OCCO2
10,> 50 µM,"CCCOC(=O)c1ccc(Oc2c[nH]nc2-c2ccc(OCC(=O)NN)cc2O)cc1 [4-[[(3E)-3-[4-(2-hydrazinyl-2-oxoethoxy)-6-oxo-1-cyclohexa-2,4-dienylidene]-1,2-dihydropyrazol-4-yl]oxy]benzoic acid propyl ester]"
11,> 50 µM,Cc1onc(-c2ccccc2)c1C(=O)N(Cc1ccco1)Cc1cccs1 [MLS000771400]
12,> 50 µM,CCOC(=O)COc1cc(O)c2c(=O)cc(-c3ccccc3)oc2c1 [2-[(5-hydroxy-4-oxo-2-phenyl-1-benzopyran-7-yl)oxy]acetic acid ethyl ester]
13,> 50 µM,CCOCCCNS(=O)(=O)c1ccc(NC(=O)c2ccc(OC)c([N+](=O)[O-])c2)cc1 [N-[4-(3-ethoxypropylsulfamoyl)phenyl]-4-methoxy-3-nitrobenzamide]
14,> 50 µM,COc1ccc(CN(Cc2ccc(OC)cc2)C(=O)c2cccs2)cc1 [MLS000860276]
15,> 50 µM,O=C(O)CCCC(=O)N1N=C(c2ccccc2)CC1c1cccs1 (configuration not stated) [SMR000414955]
16,7.75 µM,COc1ccccc1/N=C/c1nc(-c2ccccc2)oc1OC(C)=O [SMR000039734]
17,> 50 µM,COCC(=O)Nc1ccccc1-c1ccccc1 [N-2-biphenylyl-2-methoxyacetamide]
18,> 50 µM,COc1ccc(S(=O)(=O)NCc2c(-c3ccccc3)noc2C)c(OC)c1
19,> 50 µM,O=C(Nc1ccc(Cl)cc1)Nc1ccccc1C(=O)NCc1ccco1 [2-[(4-chlorophenyl)carbamoylamino]-N-(furan-2-ylmethyl)benzamide]
20,0.762 µM,"Cc1ccc(C)c(S(=O)(=O)ON2C(=O)c3ccccc3C2=O)c1 [2,5-dimethylbenzenesulfonic acid (1,3-dioxo-2-isoindolyl) ester]"
